The values that follow come from patent US20200171159A1, “SELECTIVE DESTRUCTION OF CELLS” (priority 2017, published 2020).

The subject of one data set is 1975 lung cancer cells. Description: Cell survival, enzymatic MTT assay, Example 5. The settings on record: 1975 cells. The format is cell-based, human. (Tetrazolium dyes change colour on reduction, which living cells bring about.)
The test system of data set [1] is H1975 cells. The data set can be described thus: Cell survival with LV-scFvCD24 and INr2 peptide, Example 3. It is filed as cell-based, human. The settings on record: with peptide and LV-scFvCD24 particles. The protocol: The expression of CD24 in H1975 cells was evaluated by Flow cytometry. Briefly, approximately 1×10^6 cells were used in each experiment. Fluorescein isothiocyanate (FITC)—labeled humanized anti-human CD24 antibodies were used. Detection of bound antibodies was performed on a Cube6 and results were analyzed with the FCS express program. The lentivirus used was anti-CD24 scFv in an MOI of 30. The LentiBoost™ concentration used was 1:100 buffer A+1:100 buffer B (+spinoculation). The INr2 peptide was used in a concentration of 30 μM. FIG. 3A depicts the fluorescence (count) of the tested cells (Left—negative control, only secondary antibody; Right—duplicates of cells expressing CD24 after first and second-FITC antibodies). […] FIG. 3C is a schematic illustration of the of the experiment timeline. […] Particles were added on days 1, 4 and 7 as well.

The test system of data set [2] is BT549 breast cancer cells. Description: Cell survival, enzymatic MTT assay, Example 5. The format is cell-based, human.
Data set [3] relates to H1975 cells. Description: Cell survival, enzymatic MTT assay, Example 2. The settings on record: with INS peptide and LV-scFvCD24 particles.
Description: Cell line “H1975” cells were seeded in 96-well plates (2000 cells/well). […] Particles were added on day 2.
The target in another data set is IN-Rev interaction (Human immunodeficiency virus type 1 group M subtype B, UniProt P04618). The settings on record: cited from earlier work.
IN-Rev interaction, sequence (P04618 whole entry, looked up): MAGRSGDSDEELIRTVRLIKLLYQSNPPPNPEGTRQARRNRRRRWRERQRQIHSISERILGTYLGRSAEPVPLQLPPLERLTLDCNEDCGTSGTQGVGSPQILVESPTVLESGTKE
For data set [4] the following is noted: cited from earlier work.
The next data set deals with HIV-1. The settings on record: cited from earlier work.
The target in another data set is T1, IN (Human immunodeficiency virus type 1 group M subtype B, UniProt P12497).
T1 construct: Stimulation of the HIV-1 Integrase Enzymatic Activity and cDNA Integration by a Peptide Derived from the Integrase Protein
The settings on record: listed as INS; cited from earlier work.

In a further data set the target is viral Integrase enzyme (Human immunodeficiency virus type 1 group M subtype B, UniProt P12497). The data set can be described thus: Integrase stimulation in viral infected cells, Example 4. The format is cell-based. The protocol: (§1) Integrase derived peptides (designated as INS) were synthesized as well as control peptide. Humanized Anti-CD24 antibody fragment (scFv) was engineered and fused to the lentivirus envelope. Cell death was measured qualitatively by using fluorescent microscopy and was quantified by the enzymatic MTT assay. Human colorectal cells (DLD1, colorectal adenocarcinoma, FIG. 4A) and breast cancer cells (MCF7, Human breast adenocarcinoma, FIG. 4B) were used for testing the potency of the lentiviral-based system.

In data set [5] the test system is DLD1, colorectal adenocarcinoma. The data set can be described thus: Cell death of lentivirus-infected cells, fluorescent microscopy and MTT assay, Example 4. The format is cell-based, human. The settings on record: DLD1 infected with CD24-targeted lentivirus; compared to the control peptide. The protocol:
as §1

Data set [6] deals with MCF7, Human breast adenocarcinoma. Described as above. It is filed as cell-based. The settings on record: MCF7 infected with CD24-targeted lentivirus; compared to the control peptide. The protocol: as §1
For a further data set, the target named is T2, HIV-1 integrase (Human immunodeficiency virus type 1 group M subtype B, UniProt P12497).
T2 construct: purchased
Description: Integrase activity in test tubes (HIV-1 integrase assay kit). The format is biochemical. The procedure:
The ability of INS to increase the activity of HIV-1 integrase was tested using the HIV-1 integrase assay kit.

“Also recorded” adds a separate entry of the source.

In the case of `Cc1nnc(C(=O)NC(C)(C)c2nc(C(=O)NCc3ccc(F)cc3)c(O)c(=O)n2C)o1` [Raltegravir], the “effect of Raltegravir on the decrease in survival” value (in the data set with 1975 lung cancer cells; in the data set with H1975 cells [1]; in data set [2]; in the data set with H1975 cells [3]) was “ameliorated” throughout.
Consider WGSNFTSTTVKA [INr2], for which the IN-Rev interaction entry at IN-Rev interaction is reported as “abrogated”. Further, the cell permeability result in [4] is “cell-permeable”. The virus infectivity entry with HIV-1 is “stimulated virus infectivity”.
Take WTAVQMAVFIHNFKRK [INS peptide]: the “direct effect on IN activity” value on IN is “directly activates the free IN; also recorded: direct stimulatory effect”. In addition, the IN-Rev interaction entry on IN-Rev interaction was “abrogated”. For the same compound, the “stimulation of the viral Integrase enzyme” value at viral Integrase enzyme and on HIV-1 integrase was “able to stimulate” each time. For the same compound, the cell death result in data set [5] and in data set [6] was “Massive cell death” each time. Also, the cell permeability result in data set [4] was “cell-permeable”. In addition, the virus infectivity result with HIV-1 is “stimulated virus infectivity”.
Consider WTHLEGKIILVAVHVA [INr1], for which the IN-Rev interaction entry on IN-Rev interaction is “abrogated”. Moreover, the cell permeability result in data set [4] is listed as “cell-permeable”. Also, the virus infectivity entry in the data set with HIV-1 is on record as “stimulated virus infectivity”.
